The values that follow come from the SangsterLogP compilation.

The term logP denotes a log measure of how a compound divides between an organic and an aqueous phase. Read a low logP as a more hydrophilic compound. In general, logD refers to lipophilicity at a set pH, counting ionised and neutral species.

Test in one data set: not given
Conditions: not given
Consider `COc1ccc(N)c([N+](=O)[O-])c1`, for which the log partition coefficient (logP) was found to be 1.86.
Same read-out and setting: to `COc1ccc(OC)cc1` belongs 2.03; to `Cc1ccc(Cl)cc1O`, 2.63.
The compound `COc1cccc(Cl)c1` had a log partition coefficient (logP) of 2.98.

Test in another data set: not given
Conditions: not given
The source holds these as a separate data set.
`ClC(Cl)=C(Cl)c1c(Cl)c(Cl)c(Cl)c(Cl)c1Cl` came in with a logP of 6.29.
The same measure, in the same setting: as for `CCNc1nc(Cl)nc(NC(C)C)n1`, the figure is 2.63; as for `Clc1ccc2c(ccc3ccccc32)c1`, 5.16.
Still for that read-out and setting: to `COc1c(Br)cc(Br)cc1Br` belongs 4.48.

Test in a further data set: not given
Conditions: not given
The source holds these as a separate data set.
Regarding `CCCCCCN1CC(C(=O)O)CC1=O` (centres undefined), the logP turned out to be 1.6.
Same read-out and setting: as for `CCCCCCN1CCCC1=O`, the figure is 2.6.
The same measure, in the same setting: to `CN1CC(C(=O)O)CC1=O` (centres undefined) belongs -1.5.
In turn, `CCCCCCCCCCCCN1CC(C(=O)OC)CC1=O` (centres undefined) yielded a lipophilicity (logP) of 4.

The next data set can be described thus: method code SF-GLC, from DOI: 10.1016/s0021-9673(01)83612-8. The following applies: pH 13.0.
Compound `CNC1CCc2ccccc2C1` (centres undefined) gave a pH-dependent lipophilicity (logD) of 2.38.
The same measure, in the same setting: as for `CCCCCC(C)N` (centres undefined), the figure is 2.4.
Same read-out and setting: to `CC1Cc2ccccc2CN1` (centres undefined) belongs 1.93; to `CC(N)CC1CCCCC1` (centres undefined), 2.96.

A further data set in a line: method code SF-HPLC, from DOI: 10.1021/jm100498u, PMID: 20704351. The following applies: pH 7.4.
`CCCCCC1(CCO)N=N1` yielded a logD of 2.55.
On the same count and under the same terms, to `C[C@H](c1ccccc1)n1cncc1C(=O)OCc1ccc(C(=O)c2ccccc2)cc1` belongs 4.4.

Test in the next data set: not given
Conditions: not given
This is another data set of the same source.
As for `COc1ccc(C)cc1N`, the logP amounted to 1.74.
Consider `Nc1ccc(Cl)cc1N`, for which the log partition coefficient (logP) is 1.28.
The same measure, in the same setting: to `Nc1cccc2cccnc12` belongs 1.79; to `Nc1ccc(Sc2ccccc2)cc1`, 2.18.

Another data set can be described thus: method code SF-HPLC, from DOI: 10.1016/0378-5173(82)90005-9. As to conditions: pH 3.0.
`O=C1NC(=O)C2(CCCC2)C(=O)N1`: the logD is 0.24.
Still for that read-out and setting: as for `O=C1NC(=O)C2(CCCCCCCCCC2)C(=O)N1`, the figure is 3.15; as for `O=C1NC(=O)C2(CCCCC2)C(=O)N1`, 0.91; as for `O=C1NC(=O)C2(CC2)C(=O)N1`, -0.53.

Another data set is described as follows: method code SF-RC, from DOI: 10.1021/jm901332c, PMID: 19921956. The following applies: pH 7.4.
Consider `Cn1cnc2ncnc(Cl)c21`, for which the logD stood at 0.03.
Still for that read-out and setting: as for `Cn1cnc2ncnc(F)c21`, the figure is -0.62.
Same read-out and setting: to `Cn1cnc2c(F)ncnc21` belongs 0.11; to `Cn1cnc2ncnc(Br)c21`, 0.2.

A further data set is described as follows: method code SF, from DOI: 10.1021/jm00378a018, PMID: 6389865. The following applies: pH 7.0.
On to `COC(=O)c1nc(NCC(O)CO)cnc1[N+](=O)[O-]` (centres undefined), for which the pH-dependent lipophilicity (logD) was -0.1.
As to `O=[N+]([O-])c1nccnc1NCC(O)CO` (centres undefined), the logD is -0.49.
The same measure, in the same setting: to `O=[N+]([O-])c1cnc(NC(CO)C(O)CO)cn1` (centres undefined) belongs -0.89.
On the same count and under the same terms, to `Nc1nc(NCCO)c(Cl)nc1[N+](=O)[O-]` belongs 0.12.

A short description of the next data set: method code SF, from DOI: 10.1002/em.2850190108, PMID: 1732104.
Conditions: not given
`O=[N+]([O-])c1ccc2c3c(cccc13)CC2`: the logP was determined as 3.85.
`O=C1Nc2ccc([N+](=O)[O-])cc2C1=O` gave a lipophilicity (logP) of 0.47.
On the same count and under the same terms, as for `O=[N+]([O-])c1cc([N+](=O)[O-])c2ccccc2c1`, the figure is 2.83; as for `Cc1ccc2cccc([N+](=O)[O-])c2n1`, 1.99.

The nature of a further data set: method code SF-AS, from DOI: 10.1016/0378-5173(82)90004-7. As to conditions: pH 3.0.
As to `CC1(c2ccccc2)C(=O)NC(=O)NC1=O`, the logD turned out to be 0.91.
On the same count and under the same terms, as for `CCC1(C)C(=O)NC(=O)NC1=O`, the figure is 0.08; as for `C=CCC1(C)C(=O)NC(=O)NC1=O`, 0.36; as for `O=C1NC(=O)C(c2ccccc2)(c2ccccc2)C(=O)N1`, 1.96.

Test in a further data set: not given
Conditions: not given
The source holds these as a separate data set.
As to `CSc1nc(NC(C)(C)C)nc(NC(C)(C)C)n1`, the logP is 4.39.
`CSc1nc(NC2CC2)nc(NC(C)(C)C)n1` gave a lipophilicity (logP) of 3.38.
`CSc1nc(N)nc(NC(C)(C)C)n1` yielded a logP of 2.54.
Still for that read-out and setting: as for `CSc1nc(NCCC=O)nc(NC(C)(C)C)n1`, the figure is 2.92.

Test in the next data set: not given
Conditions: not given
This is another data set of the same source.
`CN(C)C(=O)Nc1ccccc1`: the log partition coefficient (logP) turned out to be 1.18.
On to `COP(=S)(OC)Oc1nc(Cl)c(Cl)cc1Cl`, for which the logP was determined as 3.99.
Still for that read-out and setting: as for `CCN(CC)c1nc(C)cc(OP(=S)(OC)OC)n1`, the figure is 3.8; as for `CCOC(=O)CC(SP(=S)(OC)OC)C(=O)OCC` (centres undefined), 2.18.

The nature of a further data set: method code SF-AS, from DOI: 10.1007/bf02922495.
Conditions: not given
The compound `N#CC(C#N)=Cc1ccc(Cl)o1` registered a logP of 2.17.
On the same count and under the same terms, as for `N#CC(C#N)=Cc1ccco1`, the figure is 1.5.
Consider `COC(=O)C(C#N)=Cc1ccc(Cl)o1`, for which the logP is 2.4.
`COC(=O)/C(C#N)=C/c1ccco1`: the logP is 1.75.

The next data set is described as follows: method code SF-CR+AS, from DOI: 10.1016/s0003-2670(00)84151-3.
Conditions: not given
Take `NC(=S)c1ccc(Cl)cc1`: the log partition coefficient (logP) came out at 2.4.
In the case of `NC(=S)c1ccc([N+](=O)[O-])cc1`, the lipophilicity (logP) was determined as 1.75.
Still for that read-out and setting: to `Cc1ccc(C(N)=S)cc1` belongs 2.01; to `COc1ccc(C(N)=S)cc1`, 1.63.

Another data set is described as follows: method code SF-AS, from DOI: 10.1016/0223-5234(93)90135-2. As to conditions: pH 12.2.
`NCCc1nc(-c2ccccc2)cs1` had a log distribution coefficient (logD) of 2.22.
On the same count and under the same terms, as for `CN(C)CCc1ccccn1`, the figure is 1.12.
Same read-out and setting: as for `CNCCc1ccccn1`, the figure is 0.68; as for `NCCc1cn2ccccc2n1`, 0.59.

Test in a further data set: not given
Conditions: not given
The source holds these as a separate data set.
`CCCC(O)CC` (centres undefined) gave a logP of 1.65.
On the same count and under the same terms, as for `CCCCCCC(C)O` (centres undefined), the figure is 2.9; as for `CC1CCCC(C)C1O` (centres undefined), 2.37; as for `C[C@@H]1CCCC[C@H]1O`, 1.82.

The nature of another data set: method code SF, from DOI: 10.1038/bjc.1982.190, PMID: 7150475. As to conditions: pH 7.4.
`NC(=O)c1cc(N2CC2)c([N+](=O)[O-])cc1[N+](=O)[O-]` came in with a logD of 0.2.
Still for that read-out and setting: to `O=C1CN(/N=C/c2ccc([N+](=O)[O-])o2)C(=O)N1` belongs -0.19.
On the same count and under the same terms, as for `O=[N+]([O-])c1nccn1CC(O)CCN1CCOCC1` (centres undefined), the figure is -0.53; as for `Cn1cnc([N+](=O)[O-])c1S(=O)(=O)Oc1ccccc1`, 1.08.

A further data set can be described thus: method code SF, from DOI: 10.1111/j.2042-7158.1971.tb08772.x, PMID: 4401532. As to conditions: pH 7.2.
For the compound `CC(=O)Nc1ccc([N+](=O)[O-])cc1`, the logD was determined as 1.66.
Compound `CC(=O)Nc1ccc(C=O)cc1` showed a log distribution coefficient (logD) of 1.25.
On the same count and under the same terms, to `CC(=O)Nc1ccc(I)cc1` belongs 2.46; to `CC(=O)Nc1ccc(C)cc1`, 1.4.

Test in another data set: not given
Conditions: not given
This is another data set of the same source.
Consider `N#Cc1ccc([N+](=O)[O-])cc1`, for which the logP was 1.25.
`Clc1ccccc1` returned a logP of 2.73.
Compound `O=[N+]([O-])c1cccc(O)c1` gave a log partition coefficient (logP) of 1.88.
Consider `N#Cc1ccccc1[N+](=O)[O-]`, for which the lipophilicity (logP) was 1.16.

Test in a further data set: not given
Conditions: not given
This is another data set of the same source.
Consider `CCC(C)c1ccc(O)cc1` (centres undefined), for which the log partition coefficient (logP) was 3.32.
Regarding `Cc1cc(O)cc(C)c1Cl`, the logP is 3.27. This logP and that of the compound before are within 0.2 log units of each other.
Still for that read-out and setting: as for `CC(C)(C)c1cccc(O)c1`, the figure is 3.05; as for `Cc1cccc(O)c1C`, 2.48.

The next data set can be described thus: method code SF-AS, from DOI: 10.1002/1521-3838(200111)20:4<291::aid-qsar291>3.0.co;2-q.
Conditions: not given
For the compound `S=c1[nH]nc(-c2ccccc2Cl)o1`, the logP stood at 3.36.
Still for that read-out and setting: to `Oc1ccccc1-c1n[nH]c(=S)o1` belongs 2.42.
For the compound `S=c1[nH]nc(-c2ccc(Cl)cc2)o1`, the logP was determined as 3.66.
Still for that read-out and setting: as for `Cc1ccc(-c2n[nH]c(=S)o2)cc1`, the figure is 3.44.

A short description of the next data set: method code SF-HPLC, from DOI: 10.1002/jps.2600750520, PMID: 3735094. The following applies: pH 4.0.
On to `CCCCOC(=O)n1cc(F)c(=O)[nH]c1=O`, for which the logD is 0.89.
`COC(=O)n1cc(F)c(=O)[nH]c1=O` displayed a logD of -0.68.
Still for that read-out and setting: to `CCOC(=O)n1cc(F)c(=O)[nH]c1=O` belongs -0.17; to `CC(C)COC(=O)n1cc(F)c(=O)[nH]c1=O`, 0.87.

The nature of another data set: method code SF-AS, from DOI: 10.1111/j.1476-5381.1975.tb07619.x, PMID: 1182339. As to conditions: pH 10.0.
Turning to `N#Cc1ccc(NC(=O)NC(=N)N)cc1Cl`, the pH-dependent lipophilicity (logD) stood at 1.9.
On the same count and under the same terms, as for `Cc1cc(NC(=O)NC(=N)N)ccc1Cl`, the figure is 2.19; as for `N=C(N)NC(=O)Nc1ccc([N+](=O)[O-])c(Cl)c1`, 1.79.
Same read-out and setting: to `N=C(N)NC(=O)Nc1ccc(Cl)cc1` belongs 1.78.
